Test results from US20170190671A1, “BIS(ARYL)CATECHOL DERIVATIVES AS HERBICIDES” (E I DU PONT DE NEMOURS AND COMPANY, priority 2014, published 2017).

Assays:
Type in all cases: in vivo
[1] = test system: ducksalad (Heteranthera limosa); experiment: Test B flooded paddy; conditions: Heteranthera limosa, 336 h; 250 g ai/ha, Flood, 13 to 15 days, scale 0 (no effect) to 100 (complete control); read-out: Plant response rating, Ducksalad
Outline: (§1)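 Greenhouse pots flooded to 3 cm above soil at time of treatment received compound via the water, which stayed at that level.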

[2] = test system: sedge, umbrella (small-flower umbrella sedge, Cyperus difformis); experiment: Test B flooded paddy; conditions: Cyperus difformis, 336 h; 250 g ai/ha, Flood, 13 to 15 days, scale 0 (no effect) to 100 (complete control); read-out: Plant response rating, Sedge, Umbrella
Outline: as §1

[3] = test system: barnyardgrass (Echinochloa crus-galli); experiment: Test B flooded paddy; conditions: Echinochloa crus-galli, 336 h; 250 g ai/ha, Flood, 13 to 15 days, scale 0 (no effect) to 100 (complete control); read-out: Plant response rating, Barnyardgrass
Outline: as §1

rice (Oryza sativa) = experiment: Test B flooded paddy; conditions: Oryza sativa, 336 h; 250 g ai/ha, Flood, 13 to 15 days, scale 0 (no effect) to 100 (complete control); read-out: Plant response rating, Rice
Outline: as §1

[4] = test system: giant foxtail (Setaria faberii); experiment: Test A preemergence; conditions: Setaria faberi, pre-emergence, 240 h; for pest or weed control at 125 g/ha: 125 g ai/ha; for pest or weed control at 500 g/ha: 500 g ai/ha
Outline: (§2)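 Visual 0–100 rating (100 = complete control) taken about 10 d post-treatment relative to untreated checks. Preemergence: directed soil spray on sown loam/sand pots. Postemergence: seedlings 2–10 cm, 1–2 leaf. Non-phytotoxic solvent formulation with surfactant.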

[5] = test system: pigweed (Amaranthus retroflexus); experiment: Test A preemergence; conditions: Amaranthus retroflexus, pre-emergence, 240 h; for pest or weed control at 125 g/ha: 125 g ai/ha; for pest or weed control at 500 g/ha: 500 g ai/ha
Outline: as §2

[6] = test system: barnyardgrass (Echinochloa crus-galli); experiment: Test A preemergence; conditions: Echinochloa crus-galli, pre-emergence, 240 h, 0 to 100 scale, read-out: Plant response rating, Barnyardgrass; for pest or weed control at 125 g/ha: 125 g ai/ha; for pest or weed control at 500 g/ha: 500 g ai/ha
Outline: as §2

[7] = test system: giant foxtail (Setaria faberii); experiment: Test A postemergence; conditions: Setaria faberi, post-emergence, 240 h, 0 to 100 scale, read-out: Plant response rating, Foxtail, Giant; for pest or weed control at 125 g/ha: 125 g ai/ha; for pest or weed control at 500 g/ha: 500 g ai/ha
Outline: as §2

[8] = test system: pigweed (Amaranthus retroflexus); experiment: Test A postemergence; conditions: Amaranthus retroflexus, post-emergence, 240 h, 0 to 100 scale, read-out: Plant response rating, Pigweed; for pest or weed control at 125 g/ha: 125 g ai/ha; for pest or weed control at 500 g/ha: 500 g ai/ha
Outline: as §2

[9] = test system: wheat (Triticum aestivum); experiment: Test A postemergence; conditions: Triticum aestivum, post-emergence, 240 h, 0 to 100 scale, read-out: Plant response rating, Wheat; for plant injury at 125 g/ha: 125 g ai/ha; for plant injury at 500 g/ha: 500 g ai/ha
Outline: as §2

[10] = test system: barnyardgrass (Echinochloa crus-galli); experiment: Test A postemergence; conditions: Echinochloa crus-galli, post-emergence, 240 h, 0 to 100 scale, read-out: Plant response rating, Barnyardgrass; for pest or weed control at 125 g/ha: 125 g ai/ha; for pest or weed control at 500 g/ha: 500 g ai/ha
Outline: as §2

corn (Zea mays) = experiment: Test A postemergence; conditions: Zea mays, post-emergence, 240 h, 0 to 100 scale; for Corn plant response rating (crop injury, 0 = no effect, 100 = complete kill) at 125 g/ha: 125 g ai/ha; for Corn plant response rating (crop injury, 0 = no effect, 100 = complete kill) at 500 g/ha: 500 g ai/ha
Outline: as §2

kochia (Kochia scoparia) = experiment: Test C postemergence; conditions: Bassia scoparia, post-emergence, Postemergence, scale 0 to 100, read-out: Plant response rating, Kochia; for pest or weed control at 31 g/ha: 31 g ai/ha; for pest or weed control at 62 g/ha: 62 g ai/ha; for pest or weed control at 125 g/ha: 125 g ai/ha
From the text: (§3) Seeds of plant species selected from blackgrass (Alopecurus myosuroides), Italian ryegrass (Lolium multiflorum), winter wheat (Triticum aestivum), galium (catchweed bedstraw, Galium aparine), corn (Zea mays), large (Lg) crabgrass (Digitaria sanguinalis), giant foxtail (Setaria faberii), johnsongrass (Sorghum halepense), lambsquarters (Chenopodium album), morningglory (Ipomoea coccinea), yellow nutsedge (Cyperus esculentus), pigweed (Amaranthus retroflexus), ragweed (common ragweed, Ambrosia elatior), soybean (Glycine max), barnyardgrass (Echinochloa crus-galli), oilseed rape (Brassica napus), waterhemp (common waterhemp, Amaranthus rudis), and velvetleaf (Abutilon theophrasti) were planted into a blend of loam soil and sand and treated preemergence with test chemicals formulated in a non-phytotoxic solvent mixture which included a surfactant.
(§4) At the same time, plants selected from these crop and weed species and also chickweed (common chickweed, Stellaria media), kochia (Kochia scoparia), and wild oat (Avena fatua), were planted in pots containing Redi-Earth® planting medium (Scotts Company, 14111 Scottslawn Road, Marysville, Ohio 43041) comprising spaghnum peat moss, vermiculite, wetting agent and starter nutrients and treated with postemergence applications of test chemicals formulated in the same manner. Plants ranged in height from 2 to 18 cm (1- to 4-leaf stage) for postemergence treatments. Treated plants and controls were maintained in a greenhouse for 13 to 15 days, after which time all species were compared to controls and visually evaluated. Plant response ratings, summarized in Table C, are based on a scale of 0 to 100 where 0 is no effect and 100 is complete control. A dash (-) response means no test result.

[11] = test system: pigweed (Amaranthus retroflexus); experiment: Test C postemergence; conditions: Amaranthus retroflexus, post-emergence, 336 h, Postemergence, scale 0 to 100, read-out: Plant response rating, Pigweed; for pest or weed control at 31 g/ha: 31 g ai/ha; for pest or weed control at 62 g/ha: 62 g ai/ha; for pest or weed control at 125 g/ha: 125 g ai/ha
From the text: as §3, §4

[12] = 0 to 100 scale, read-out: Plant response rating, Foxtail, Giant
[13] = 0 to 100 scale, read-out: Plant response rating, Pigweed

Row | SMILES | pest or weed control at 250 g/ha [1] [%] | pest or weed control at 250 g/ha [2] [%] | pest or weed control at 250 g/ha [3] [%] | plant injury at 250 g/ha (rice (Oryza sativa)) [%] | pest or weed control at 500 g/ha [4, 12] [%] | pest or weed control at 500 g/ha [5, 13] [%] | pest or weed control at 125 g/ha [6] [%] | pest or weed control at 500 g/ha [6] [%] | pest or weed control at 125 g/ha [7] [%] | pest or weed control at 500 g/ha [7] [%] | pest or weed control at 125 g/ha [8] [%] | pest or weed control at 500 g/ha [8] [%] | plant injury at 125 g/ha [9] [%] | plant injury at 500 g/ha [9] [%] | pest or weed control at 125 g/ha [10] [%] | pest or weed control at 500 g/ha [10] [%] | Corn plant response rating (crop injury, 0 = no effect, 100 = complete kill) at 125 g/ha (corn (Zea mays)) [%] | Corn plant response rating (crop injury, 0 = no effect, 100 = complete kill) at 500 g/ha (corn (Zea mays)) [%] | pest or weed control at 31 g/ha (kochia (Kochia scoparia)) [%] | pest or weed control at 62 g/ha (kochia (Kochia scoparia)) [%] | also measured
1 | N#Cc1cccc(Oc2ncc(Cl)cn2)c1Oc1ncc(Cl)cn1 [Compound 3, 2,3-bis[(5-chloro-2-pyrimidinyl)oxy]benzonitrile] | 90 | 90 | 20 | 35 | 100 | 100 | 100 | 100 | 90 | 90 | 100 | 100 | 60 | 80 | 90 | 90 | 50 | 80 | 90 | 90 | pest or weed control at 125 g/ha [4, 12]: 100%; pest or weed control at 125 g/ha [5, 13]: 100%; pest or weed control at 125 g/ha (kochia (Kochia scoparia)): 95%; pest or weed control at 250 g/ha (kochia (Kochia scoparia); 250 g ai/ha): 95%; pest or weed control at 31 g/ha [11]: 75%; pest or weed control at 62 g/ha [11]: 80%; pest or weed control at 125 g/ha [11]: 90%; pest or weed control at 250 g/ha ([11]; 250 g ai/ha): 100%
2 | Fc1cccc(Oc2ncc(Cl)cn2)c1Oc1ncc(Cl)cn1 [Compound 21, 2,2′-[[3-fluoro-1,2-phenylene]bis(oxy)]bis[5-chloropyrimidine]] | 100 | 90 | 35 | 40 | 100 | 100 | 90 | 100 | 90 | 90 | 100 | 100 | 50 | 60 | 80 | 90 | 50 | 60 | 90 | 90 | pest or weed control at 125 g/ha ([4]; 0 to 100 scale (0 no effect, 100 complete control), read-out: Foxtail, Giant plant response rating): 100%; pest or weed control at 125 g/ha ([5]; 0 to 100 scale (0 no effect, 100 complete control), read-out: Pigweed plant response rating): 100%; pest or weed control at 16 g/ha (kochia (Kochia scoparia); 16 g ai/ha): 85%; pest or weed control at 125 g/ha (kochia (Kochia scoparia)): 98%; pest or weed control at 31 g/ha [11]: 75%; pest or weed control at 62 g/ha [11]: 85%; pest or weed control at 125 g/ha [11]: 95%
